Assay [1] relates to neutrophil recruitment to the endothelium. Nature of the assay: Neutrophil recruitment in Airway-on-Chip emulating acute asthma exacerbation (HRV-16 infection, IL-13 stimulation). The class given is cell-based, human. Particulars: 10 microM; three stimulation conditions (HRV-16, IL-13, HRV-16+IL-13); chips flipped. An excerpt:
As shown here, exemplary embodiments of an inflamed Airway-on-Chip emulating acute asthma exacerbation by combining Rhinovirus infection with IL-13 stimulation in the presence of an exemplary immuno-modulatory compound. In some embodiments, neutrophil recruitment following exacerbation with HRV can be reduced by an exemplary CXCR2 antagonist MK-7123, however these experiments were done by flipping chips. […] HRV-16 is represented as small green dots in the upper channel while neutrophil cells (also described as polymorphonuclear leukocytes (PMN)) are represented as large purple spots in the lower channel. […] Treatments included HRV-16 alone infected cells, IL-13 alone treated cells, HRV-16 and (+) IL-13 treated cells, HRV-16+CXCR2in (inhibitor) treated cells, and HRV-16+IL-13+CXCR2in. Non-stimulated chips are showing limited neutrophil recruitment while HRV infected and IL-13-treated chips show increased neutrophil recruitment. IL-13+HRV induce an additive increase in neutrophil recruitment, while treatment with a CXCR2 antagonist. […] Quantification of neutrophil recruitment (**p<0.01; ****p<0.001).
HRV-16 is represented as small green dots in the upper channel while neutrophil cells (also described as polymorphonuclear leukocytes (PMN)) are represented as large purple spots in the lower channel. […] Quantification of neutrophil recruitment (**p<0.01; ****p<0.001).

The test system of assay [2] is goblet cells hyperplasia, pro-inflammatory cytokines, cilia beating frequency. As to the kind of experiment: Small-airway-on-a-chip perfused with IL-13 (Th2 microenvironment), airway remodeling phenotype. The class given is cell-based, human. Particulars: IL-13 through the vascular channel.

In the case of `CC[C@@H](Nc1c(Nc2cccc(C(=O)N(C)C)c2O)c(=O)c1=O)c1ccc(C)o1` [MK-7123], in assay [1], the neutrophil recruitment entry was “significantly reduced neutrophil recruitment”. With `C[C@@H]1CCN(C(=O)CC#N)C[C@@H]1N(C)c1ncnc2[nH]ccc12` [Tofacitinib], the “IL-13 induced airway remodeling phenotype” value in assay [2] is recorded as “suppressed”.

These data come from patent US11788044B2, “Rheologically biomimetic fluid surrogate” (EMULATE, INC., priority 2017, dated 2023).
